Converted amounts (≈) assume the structure as drawn. “Also recorded” adds a separate entry of the source. Residues, ends and D or L forms follow the SMILES beside them. No end group written: not given here.
Experiments:
[1] = system: Escherichia coli ATCC 25922; type: cell-based; conditions: broth microdilution in MHB, peptide 128 down to 0.5 µg/mL, 20–24 h at 37 °C, no visible growth; range of three independent experiments
Summary of the method: (§1)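 CLSI broth microdilution in MHB, adapted for cationic peptides, in polypropylene plates; peptides 2-fold from 128 to 0.5 µg/mL, inoculum 2–8 × 10^5 cfu/mL. Incubated 20–24 h at 37 °C; MIC = lowest concentration with no visible growth.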

[2] = system: Salmonella enterica serovar Enteritidis (human clinical isolate); type: cell-based; conditions: broth microdilution in MHB, peptide 128 down to 0.5 µg/mL, 20–24 h at 37 °C, no visible growth; range of three independent experiments
Summary of the method: as §1

[3] = system: Staphylococcus aureus ATCC 29213; type: cell-based; conditions: broth microdilution in MHB, peptide 128 down to 0.5 µg/mL, 20–24 h at 37 °C, no visible growth; range of three independent experiments
Summary of the method: as §1

porcine red blood cells = experiment: Hemolysis assay (HC50); type: cell-based, pig; conditions: for hemolytic activity (in words): porcine RBCs, highest concentration tested 128 µg/mL
Protocol: Peptides were evaluated for toxicity using three independent hemolysis experiments. Whole blood from healthy donor pigs, supplemented with Na Citrate, was purchased from Lampire Biological Laboratories (Pipersville, PA, USA). Red blood cells (RBCs) were washed and isolated by three centrifugation cycles using Roswell Park Memorial Institute medium (RPMI; Thermo-Fisher Scientific) to create a 1% (v/v) RBC solution. […] Following a minimum 30 min incubation at 37 °C, plates were centrifuged and ½ volume from each supernatant was transferred to a new 96-well plate. The absorbance of these wells was measured at 415 nm. To quantify hemolytic activity and determine the AMP concentration that lyses 50% of the RBCs (HC50), absorbance reading from wells containing RBCs treated with 11 μL of a 2% TritonX-100 detergent solution (TX-100) or RPMI (AMP solvent-only) were used to define 100% and 0% hemolysis, respectively. All centrifugation steps were performed at 500× g for five minutes in an Allegra-6R centrifuge (Beckman Coulter, Brea, CA, USA).

HEK293 cells = experiment: alamarBlue cell viability assay (cytotoxicity); type: cell-based, human
Protocol: The human embryonic kidney cell line HEK293 and the corresponding growth media and supplements were purchased from the ATCC. The cells were maintained in Eagle’s Minimum Essential Medium (EMEM) supplemented with 10% fetal bovine serum (FBS) and 1% Penicillin-Streptomycin solution and grown in a 5% CO2 incubator at 37 °C. Approximately 1 × 10^4 cells were distributed to each well of a 96-well flat-bottom cell culture plate (Corning #3595, Corning, NY, USA). Cells were incubated overnight to allow them to adhere. Lyophilized 80 µg peptide aliquots were resuspended to 1.28 mg/mL with UltraPure deionized water and serially diluted in polypropylene 96-well microtiter plates from 128-0.5 µg/mL. TX-100 was diluted to 2% in UltraPure deionized water and added as a positive control. Complete growth medium was added to the peptides and TX-100 containing wells. Spent growth medium of wells with adhered cells was replaced with the contents of wells containing serially diluted peptides or TX-100. Cells were incubated for four hours at 37 °C in 5% CO2 incubator. Growth medium containing peptides or TX-100 was replaced with fresh growth medium containing 10% (v/v) alamarBlue (Bio-Rad Laboratories, Hercules, CA, USA) and incubated for 20 h. Fluorescence was measured at excitation of 540 nm and emission of 590 nm in a Cytation 5 plate reader (Agilent BioTek, Winooski, VT, USA) and results recorded and analyzed with Gen5 software (Agilent BioTek, Winooski, VT, USA). The average fluorescence reads of TX-100 and growth media only wells were used to calculate 0% and 100% cell viability, respectively. The percentage of viable cells at each peptide concentration was determined by: cell viability%=1−fluorescence100% viable− fluorescencepeptide/fluorescence100% viable−fluorescence0% viable×100%

Row | Molecule | MIC, E. coli ATCC 25922 [1] [µg/mL] | MIC, Salmonella Enteritidis [2] [µg/mL] | MIC, S. aureus ATCC 29213 [3] [µg/mL] | HC50 (hemolytic 50 concentration) (porcine red blood cells; 1% porcine RBCs in RPMI, peptide 128 down to 1 µg/mL, minimum 30 min at 37 °C, absorbance 415 nm, three independent experiments) [µg/mL] | hemolytic activity (in words) (porcine red blood cells) | toxicity to HEK293 cells (in words) (HEK293 cells; any of the concentrations tested, up to 128 µg/mL) | HEK293 cell viability (HEK293 cells; at 128 µg/mL, mean of three independent experiments) [%] | cytotoxicity to HEK293 cells (in words) (HEK293 cells; at concentrations lower than 128 µg/mL)
1 | CC[C@H](C)[C@H](NC(=O)CNC(=O)[C@H](CCCNC(=N)N)NC(=O)[C@H](CC(C)C)NC(=O)[C@H](CC(C)C)NC(=O)CN)C(=O)N[C@@H](CC(C)C)C(=O)NCC(=O)N[C@@H](C)C(=O)NCC(=O)N[C@@H](CCCCN)C(=O)N[C@@H](CCCCN)C(=O)N[C@H](C(=O)N[C@H](C(=O)N[C@@H](CS)C(=O)NCC(=O)N[C@@H](CC(C)C)C(=O)N[C@@H](CO)C(=O)NCC(=O)N[C@@H](CC(C)C)C(=O)N[C@@H](CS)C(=O)O)C(C)C)[C@@H](C)CC [OdMa2] (H-GLLRGILGAGKKIVCGLSGLC-OH) | 4 (≈ 1.97 µM) | 8 to 16 | 4 to 8 | 128 |  |  |  | 
2 | SWLSKSVKKLVNKKNYTRLEKLAKKKLFNE [TeRu4] | 1 | 2 to 4 |  |  | not hemolytic at the concentrations tested; also recorded: not toxic | not toxic |  | 
3 | KIKIPWGKVKDFLVGGMKAVGKK [TeBi1] | 1 to 2 | 4 to 8 | 4 to 8 |  | not hemolytic at the concentrations tested |  | 40 | low or no cytotoxicity at lower concentrations
